Here are results for four compounds from patent US20100130436A1, “CO-ADMINISTRATION OF RANOLAZINE AND CARDIAC GLYCOSIDES” (priority 2008, published 2010).

Each structure is given as a SMILES string. “And” between values parts separate entries of the source, which are not always exact repeats. Identical values can stand only once.

The subject of data set [1] is late sodium current (late INa). Put plainly: Whole-cell patch-clamp of late INa in isolated ventricular myocytes. The class given is cell-based, guinea pig. The conditions noted are these: for effect of ouabain (1 μmol/L) to increase late INa: FIG. 10, intracellular KN-93 10 μmol/L, EGTA 1 mmol/L, KN-92 10 μmol/L; for increase of late INa at the end of a 10-min exposure to ouabain / late INa at the end of a 10-min exposure to ouabain: ouabain 1 μmol/L. (In general: The patch-clamp technique gives a direct electrical read-out from membranes.)

Data set [2] relates to [Na+]i of guinea pig isolated heart. The experiment in a line: 23Na-NMR spectroscopy of intracellular sodium concentration in isolated heart.
Data set [3] deals with guinea pig isolated, perfused heart.
Data set [4] deals with isolated guinea pig papillary muscles.
[5] abbreviates: agent 10 μmol/L intracellular via patch pipette.

`COc1ccc(S(=O)(=O)N(CCO)c2ccccc2CN(C)C/C=C/c2ccc(Cl)cc2)cc1` [KN-93]: in data set [1], the “effect of ouabain (1 μmol/L) to increase late INa” value was “attenuated”. In addition, in data set [1] (setting [5]), the “increase of late INa at the end of a 10-min exposure to ouabain” value (from here on “increase of late INa”) worked out at 76±35% and the “late INa at the end of a 10-min exposure to ouabain” value is on record as 33±6 pC/pF.
Turning to `NC1=N[C@H](O)[C@H]2[C@H]3O[C@]4(O)O[C@@H]([C@@H](O)[C@@]2(N1)[C@@H]4O)[C@]3(O)CO` [TTX, tetrodotoxin], in data set [2], the “[Na+]i” value is “did not significantly change”, the “[Na+]i plateau concentration” value is 10.5 ± 0.3 mmol/L and the “decrease in the ouabain-induced rise of [Na+]i” value is “concentration-dependent”. In data set [3], the LVSP decrease was 9% and 18.2%; the “effect of ouabain to cause contractile dysfunction” value is reported as “attenuated”; the “episodes of cardiac standstill and changes in LVEDP” value is reported as “neither episodes of cardiac standstill nor changes in LVEDP were observed”; the “maximum value of RPP” value is 35,569±1,850 mmHg/min and 39,182±2,216 mmHg/min. Moreover, in data set [3], the “occurrence of episodes of cardiac standstill caused by ouabain” value is reported as “reduced”, the “positive inotropic effect of ouabain throughout the 60-min exposure” value is “sustained”, the “recovery of contractile function after drug washout” value is on record as “better recovery” and the “responses of hearts exposed to ouabain” value is “comparable to those exposed to ouabain in the presence of 3 union ranolazine”. In addition, the “increase of diastolic tension during ouabain treatment” value in data set [4] is on record as “attenuated”. Further, in data set [1], the “effect of 1 μmol/L ouabain to increase late INa” value is listed as “partially reversed”, the “late INa” value is 21.2±7.9 pC/pF and the ouabain-induced late current result was “completely inhibited”.
For the compound `COc1ccc(S(=O)(=O)Nc2ccccc2CN(C)C/C=C/c2ccc(Cl)cc2)cc1` [KN-92], the “effect of ouabain (1 μmol/L) to increase late INa” value in data set [1] was “not”. In data set [1] (setting [5]), the “increase of late INa” value is reported as 273±39% and the “late INa at the end of a 10-min exposure to ouabain” value was found to be 72±7 pC/pF.
Turning to `O=C(O)CN(CCOCCOCCN(CC(=O)O)CC(=O)O)CC(=O)O` [EGTA], the “effect of ouabain (1 μmol/L) to increase late INa” value in data set [1] was “attenuated”. In addition, the “late INa at the end of a 10-min exposure to ouabain” value in data set [1] (EGTA 1 mmol/L in patch pipette, from 23±3, n=6) worked out at 31±8 pC/pF. The “increase of late INa” value in data set [1] (EGTA 1 mmol/L in patch pipette, n=6) was determined as 33±28%.
